Measured values taken from ChEMBL document CHEMBL3885881, “DrugMatrix”.

Species on record: Rattus norvegicus
Test: DrugMatrix - Regimen: Daily Repeat
Format: toxicity, organism-based, Sprague-Dawley
Set-up: regimen Daily Repeat, gender Male, age 6-8 weeks
Settings: in vivo, iv, 72 h, time 3 day, vehicle 100 % SALINE; for ABSOLUTE BASOPHIL / ABSOLUTE EOSINOPHIL / ABSOLUTE LYMPHOCYTE / ABSOLUTE MONOCYTE / ABSOLUTE SEGMENTED NEUTROPHIL / BASOPHIL / EOSINOPHIL / ERYTHROCYTE COUNT / HEMATOCRIT / HEMOGLOBIN / LEUKOCYTE COUNT / LYMPHOCYTE / MEAN CORPUSCULAR HEMOGLOBIN / MEAN CORPUSCULAR HEMOGLOBIN CONCENTRATION / MEAN CORPUSCULAR VOLUME / MONOCYTE / NEUTROPHIL / NUCLEATED RED BLOOD CELLS / PLATELET COUNT: tissue Blood; for ALANINE AMINOTRANSFERASE / ALKALINE PHOSPHATASE / ASPARTATE AMINOTRANSFERASE / BLOOD UREA NITROGEN / CARBON DIOXIDE / CHLORIDE / CHOLESTEROL / CREATINE PHOSPHOKINASE / CREATININE / GLUCOSE / LACTATE DEHYDROGENASE / LIPASE / PHOSPHORUS / POTASSIUM / SODIUM / TOTAL BILIRUBIN / TOTAL PROTEIN / URIC ACID: tissue Plasma

Structure (SMILES): COc1cc2c(c(OC)c1OC)-c1ccc(OC)c(=O)cc1[C@@H](NC(C)=O)CC2 [COLCHICINE]
- ABSOLUTE BASOPHIL (0.06 mg/kg, dose level Low): 0 CELLS/uL
- ABSOLUTE EOSINOPHIL (0.06 mg/kg, dose level Low): 27.33 CELLS/uL
- ABSOLUTE LYMPHOCYTE (0.06 mg/kg, dose level Low): 6156.67 CELLS/uL
- ABSOLUTE MONOCYTE (0.06 mg/kg, dose level Low): 0 CELLS/uL
- ABSOLUTE SEGMENTED NEUTROPHIL (0.06 mg/kg, dose level Low): 749.33 CELLS/uL
- BASOPHIL (0.06 mg/kg, dose level Low): 0%
- EOSINOPHIL (0.06 mg/kg, dose level Low): 0.33%
- ERYTHROCYTE COUNT (0.06 mg/kg, dose level Low): 5.17 x10E6/uL
- HEMATOCRIT (0.06 mg/kg, dose level Low): 32.07%
- HEMOGLOBIN (0.06 mg/kg, dose level Low): 12.27 G/DL
- LEUKOCYTE COUNT (0.06 mg/kg, dose level Low): 6.93 x10E3/uL
- LYMPHOCYTE (0.06 mg/kg, dose level Low): 89%
- MEAN CORPUSCULAR HEMOGLOBIN (0.06 mg/kg, dose level Low): 23.77 pg
- MEAN CORPUSCULAR HEMOGLOBIN CONCENTRATION (0.06 mg/kg, dose level Low): 38.27 G/DL
- MEAN CORPUSCULAR VOLUME (0.06 mg/kg, dose level Low): 62.1 fL
- MONOCYTE (0.06 mg/kg, dose level Low): 0%
- NEUTROPHIL (0.06 mg/kg, dose level Low): 10.67%
- NUCLEATED RED BLOOD CELLS (0.06 mg/kg, dose level Low): 0 /100WBC
- PLATELET COUNT (0.06 mg/kg, dose level Low): 1043 x10E3/uL
- ALANINE AMINOTRANSFERASE (0.06 mg/kg, dose level Low): 47.67 u/L
- ALKALINE PHOSPHATASE (0.06 mg/kg, dose level Low): 415.67 u/L
- ASPARTATE AMINOTRANSFERASE (0.06 mg/kg, dose level Low): 76.33 u/L
- BLOOD UREA NITROGEN (0.06 mg/kg, dose level Low): 14 mg/dL
- CARBON DIOXIDE (0.06 mg/kg, dose level Low): 31.67 mmol/L
- CHLORIDE (0.06 mg/kg, dose level Low): 96.33 MEQ/L
- CHOLESTEROL (0.06 mg/kg, dose level Low): 74 mg/dL
- CREATINE PHOSPHOKINASE (0.06 mg/kg, dose level Low): 201 u/L
- CREATININE (0.06 mg/kg, dose level Low): 0.18 mg/dL
- GLUCOSE (0.06 mg/kg, dose level Low): 136.67 mg/dL
- LACTATE DEHYDROGENASE (0.06 mg/kg, dose level Low): 97 u/L
- LIPASE (0.06 mg/kg, dose level Low): 8 u/L
- PHOSPHORUS (0.06 mg/kg, dose level Low): 13.4 mg/dL
- POTASSIUM (0.06 mg/kg, dose level Low): 6.43 MEQ/L
- SODIUM (0.06 mg/kg, dose level Low): 144.43 MEQ/L
- TOTAL BILIRUBIN (0.06 mg/kg, dose level Low): 0.17 mg/dL
- TOTAL PROTEIN (0.06 mg/kg, dose level Low): 6.37 G/DL
- URIC ACID (0.06 mg/kg, dose level Low): 1.13 mg/dL
- ABSOLUTE BASOPHIL (0.6 mg/kg, dose level High): 0 CELLS/uL
- ABSOLUTE EOSINOPHIL (0.6 mg/kg, dose level High): 18.33 CELLS/uL
- ABSOLUTE LYMPHOCYTE (0.6 mg/kg, dose level High): 4412.33 CELLS/uL
- ABSOLUTE MONOCYTE (0.6 mg/kg, dose level High): 18.33 CELLS/uL
- ABSOLUTE SEGMENTED NEUTROPHIL (0.6 mg/kg, dose level High): 317.67 CELLS/uL
- BASOPHIL (0.6 mg/kg, dose level High): 0%
- EOSINOPHIL (0.6 mg/kg, dose level High): 0.33%
- ERYTHROCYTE COUNT (0.6 mg/kg, dose level High): 4.91 x10E6/uL
- HEMATOCRIT (0.6 mg/kg, dose level High): 30.9%
- HEMOGLOBIN (0.6 mg/kg, dose level High): 11.7 G/DL
- LEUKOCYTE COUNT (0.6 mg/kg, dose level High): 4.77 x10E3/uL
- LYMPHOCYTE (0.6 mg/kg, dose level High): 93%
- MEAN CORPUSCULAR HEMOGLOBIN (0.6 mg/kg, dose level High): 23.87 pg
- MEAN CORPUSCULAR HEMOGLOBIN CONCENTRATION (0.6 mg/kg, dose level High): 37.87 G/DL
- MEAN CORPUSCULAR VOLUME (0.6 mg/kg, dose level High): 62.97 fL
- MONOCYTE (0.6 mg/kg, dose level High): 0.33%
- NEUTROPHIL (0.6 mg/kg, dose level High): 6.33%
- NUCLEATED RED BLOOD CELLS (0.6 mg/kg, dose level High): 0.33 /100WBC
- PLATELET COUNT (0.6 mg/kg, dose level High): 987.33 x10E3/uL
- ALANINE AMINOTRANSFERASE (0.6 mg/kg, dose level High): 103.67 u/L
- ALKALINE PHOSPHATASE (0.6 mg/kg, dose level High): 371.33 u/L
- ASPARTATE AMINOTRANSFERASE (0.6 mg/kg, dose level High): 526.67 u/L
- BLOOD UREA NITROGEN (0.6 mg/kg, dose level High): 14.33 mg/dL
- CARBON DIOXIDE (0.6 mg/kg, dose level High): 28.67 mmol/L
- CHLORIDE (0.6 mg/kg, dose level High): 97 MEQ/L
- CHOLESTEROL (0.6 mg/kg, dose level High): 115.67 mg/dL
- CREATINE PHOSPHOKINASE (0.6 mg/kg, dose level High): 183.67 u/L
- CREATININE (0.6 mg/kg, dose level High): 0.17 mg/dL
- GLUCOSE (0.6 mg/kg, dose level High): 165.67 mg/dL
- LACTATE DEHYDROGENASE (0.6 mg/kg, dose level High): 137.33 u/L
- LIPASE (0.6 mg/kg, dose level High): 9 u/L
- PHOSPHORUS (0.6 mg/kg, dose level High): 11.9 mg/dL
- POTASSIUM (0.6 mg/kg, dose level High): 6.74 MEQ/L
- SODIUM (0.6 mg/kg, dose level High): 144.13 MEQ/L
- TOTAL BILIRUBIN (0.6 mg/kg, dose level High): 0.13 mg/dL
- TOTAL PROTEIN (0.6 mg/kg, dose level High): 6.3 G/DL
- URIC ACID (0.6 mg/kg, dose level High): 1.67 mg/dL
